Measured values taken from US20080187922A1 (priority 2006, published 2008).
In brackets after ≈: the same amount, converted by molar mass.

Tested on: Mycobacterium smegmatis recombinant strains
Experiment: microbe, parasite or virus in culture
Assay type: cell-based
Conditions: Mycolicibacterium smegmatis, read-out: RFP MIC

CO[C@H]1/C=C/O[C@@]2(C)Oc3c(C)c(O)c4c(O)c(c(/C=N/N5CCN(C)CC5)c(O)c4c3C2=O)NC(=O)/C(C)=C\C=C\[C@H](C)[C@H](O)[C@@H](C)[C@@H](O)[C@@H](C)[C@H](OC(C)=O)[C@@H]1C [RFP, 3-(4-Methylpiperazinyliminomethyl)-rifamycin]
MIC: 150 µg/mL (≈ 182 µM)
